Drawing on PubChem BioAssay (NCI), this text covers TGI and GI50 for 14 molecules.

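Grown in 96-well plates, cells were treated for 48 hours with each compound at five concentrations. Insufficient inhibition: endpoint recorded as highest concentration tested. GI50 is the concentration that inhibits growth by half. At the TGI there is no net growth.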 Where a SMILES comes first, the peptide text is derived from it. The star is where a group is joined. Boc = CC(C)(C)OC(=O)* Some results are limits rather than exact numbers.

Test systems include A498 renal; T-47D breast; NCI-H23 lung; HL-60(TB) leukemia; HT29 colon; TK-10 renal; ACHN renal; A549 NSCLC; M14 melanoma; EKVX NSCLC.
Experiment in all cases: NCI tumour cell line growth inhibition, 48 h

As for `O=C1CC(c2cccc(Cl)c2)n2cccc21` (stereo not drawn), the TGI was above 100 µM in the experiment on A498 renal; above 100 µM with T-47D breast; above 100 µM with NCI-H23 lung; 92.7 µM in the experiment on HL-60(TB) leukemia; above 100 µM with HT29 colon; above 100 µM in the experiment on TK-10 renal. Further, the TGI with ACHN renal, in the experiment with A549 NSCLC and in the experiment with M14 melanoma was above 100 µM each time.
Turning to `O=C(c1cccs1)N(C(=O)N1CCC(c2ccccc2)CC1)c1ccccc1`, the TGI is above 100 µM with A498 renal; 93.5 µM in the experiment with T-47D breast; 52.9 µM in the experiment on EKVX NSCLC; above 100 µM with NCI-H23 lung; 91.2 µM in the experiment with HL-60(TB) leukemia; above 100 µM in the experiment with HT29 colon. Besides, the TGI in the experiment on TK-10 renal, in the experiment with ACHN renal and in the experiment on M14 melanoma was above 100 µM in each case.
As for `O=C(CSc1nc2ccc(I)cc2c(=O)n1Cc1ccccc1)Nc1ccc(Br)cc1`, the TGI was 68.1 µM in the experiment on A498 renal; above 100 µM in the experiment with T-47D breast; 38.9 µM with EKVX NSCLC; above 100 µM in the experiment with NCI-H23 lung; above 100 µM with HL-60(TB) leukemia; above 100 µM with HT29 colon. The TGI in the experiment on ACHN renal, with A549 NSCLC and in the experiment on M14 melanoma was above 100 µM throughout.
On to `CC1CC[C@]2(C(=O)O)CCC3(C)C(=C2[C@H]1C)C=CC1[C@@]2(C)CC[C@H](O)C(C)(C)C2CC[C@]13C` (stereo partly drawn), for which the TGI in the experiment on T-47D breast was 58.9 µM; in the experiment on EKVX NSCLC, above 100 µM; in the experiment on NCI-H23 lung, above 100 µM; with HL-60(TB) leukemia, above 100 µM; in the experiment with HT29 colon it was above 100 µM; with TK-10 renal, above 100 µM. For the same molecule, the TGI with ACHN renal is 48.2 µM; with A549 NSCLC it was 62.6 µM; in the experiment with M14 melanoma it was above 100 µM.
`COC1CCC(OC2CC(C3(C)CCC4(CC(O)C(C)C(C(C)/C=C(\C)C(=O)C(C)CC(C)C(=O)O)O4)O3)OC3(OC(C4OC(O)(CO)C(C)CC4C)CC3C)C2C)OC1C` (stereo not drawn): the TGI was determined as 0.336 µM in the experiment with A498 renal; 1.22 µM in the experiment with T-47D breast; 9.64 µM with EKVX NSCLC; 1.13 µM in the experiment with NCI-H23 lung; 2.19 µM in the experiment on HT29 colon; 5.79 µM in the experiment with TK-10 renal. Further, the results for the TGI in the experiment on ACHN renal, in the experiment with A549 NSCLC and in the experiment with M14 melanoma were 4.9 µM, 1.97 µM and 0.287 µM, respectively.
Regarding `CC(Nc1cc(Cl)cc(Cl)c1)c1ccncc1` (stereo not drawn), the TGI is 88.8 µM with A498 renal; above 100 µM in the experiment on T-47D breast; 59.9 µM with EKVX NSCLC; 71.1 µM in the experiment with NCI-H23 lung; 88.8 µM in the experiment on HT29 colon; above 100 µM in the experiment on TK-10 renal. The figures for the TGI in the experiment on ACHN renal, in the experiment with A549 NSCLC and in the experiment with M14 melanoma were 67.6 µM, above 100 µM and 33.4 µM, respectively.
As to `Clc1ccc(OCc2nnc(CCCCCCCCc3nnc(COc4ccc(Cl)cc4Cl)o3)o2)c(Cl)c1`, the TGI with A498 renal, in the experiment with EKVX NSCLC, in the experiment on NCI-H23 lung, in the experiment with HT29 colon, in the experiment with TK-10 renal and with ACHN renal was above 100 µM throughout. Moreover, the TGI in the experiment with A549 NSCLC and with M14 melanoma was above 100 µM in each case.
Turning to `CC(NC(=O)C(NC(=O)OC(C)(C)C)C(C)C)C(=O)NCC(=O)O` (stereo not drawn) (Boc-Val-Ala-Gly-OH; configuration not given here), the TGI with T-47D breast, with EKVX NSCLC, in the experiment on NCI-H23 lung, with HT29 colon, in the experiment on TK-10 renal and in the experiment on ACHN renal was above 100 µM in each case. The TGI in the experiment with A549 NSCLC and in the experiment with M14 melanoma was above 100 µM in each case.
Take `COc1ccc(-c2cc(-c3ccc(Nc4ccnc5cc(Cl)ccc45)cc3)nc(N)c2C#N)c2ccccc12`: the TGI with A498 renal, with T-47D breast, in the experiment with EKVX NSCLC, in the experiment on NCI-H23 lung, in the experiment with HT29 colon and in the experiment on TK-10 renal was above 100 µM each time. For the same molecule, the TGI in the experiment on ACHN renal, in the experiment on A549 NSCLC and in the experiment with M14 melanoma was above 100 µM each time.
For `O=C(c1ccco1)N(C(=S)N1CCN(c2ccccc2)CC1)c1ccccc1`, the TGI in the experiment on NCI-H23 lung, in the experiment with HL-60(TB) leukemia, in the experiment with HT29 colon, in the experiment on TK-10 renal, in the experiment with ACHN renal and in the experiment on A549 NSCLC was above 100 µM throughout. In the experiment on M14 melanoma, this molecule had a TGI above 100 µM.
As for `COc1ccc(-c2cn3ccnc3c(-c3ccc4ncn(C5CCCCC5)c4c3)n2)cc1`, the GI50 is 0.742 µM in the experiment on A498 renal; 0.761 µM with T-47D breast; 3.04 µM in the experiment with EKVX NSCLC; 2.11 µM in the experiment on NCI-H23 lung; 1.06 µM with HL-60(TB) leukemia; 2.99 µM in the experiment with TK-10 renal. Further, the GI50 was 0.692 µM with ACHN renal, 1.83 µM with A549 NSCLC and 0.612 µM in the experiment with M14 melanoma. The TGI in the experiment with A498 renal is above 100 µM; in the experiment on T-47D breast, 4.5 µM; in the experiment on EKVX NSCLC, above 100 µM; in the experiment on NCI-H23 lung, above 100 µM; with HL-60(TB) leukemia it was 5.05 µM; with TK-10 renal it was 68.9 µM. Further, the TGI in the experiment with ACHN renal, with A549 NSCLC and in the experiment with M14 melanoma was above 100 µM in each case.
With `C/C(=N/O)c1cccc(Nc2nc3ccccc3c3[nH]c4ccccc4c23)c1`, the TGI in the experiment on T-47D breast turned out to be 3.82 µM; in the experiment on EKVX NSCLC, 7.38 µM; in the experiment on NCI-H23 lung it was 11.8 µM; in the experiment on HL-60(TB) leukemia it was 8.23 µM; in the experiment with HT29 colon, 6.51 µM; in the experiment on TK-10 renal, 15.6 µM. Also, the TGI in the experiment with ACHN renal worked out at 7.17 µM; in the experiment with A549 NSCLC, 8.8 µM; with M14 melanoma, 6.3 µM.
As for `CC(NCCS(=O)(=O)O)C(=O)O` (stereo not drawn), the TGI in the experiment on A498 renal, in the experiment with EKVX NSCLC, in the experiment with NCI-H23 lung, in the experiment with HL-60(TB) leukemia, in the experiment with HT29 colon and with A549 NSCLC was above 100 µM each time.
As to `CC1(C)CCOC(=O)C(Cl)CC1Cl` (stereo not drawn), the TGI with A498 renal, in the experiment with T-47D breast, with EKVX NSCLC, with NCI-H23 lung, in the experiment on HT29 colon and in the experiment on TK-10 renal was above 100 µM in each case. The TGI in the experiment on ACHN renal, with A549 NSCLC and with M14 melanoma was above 100 µM in each case.
